Measured values published in ChEMBL document CHEMBL1949534, “Two-step bioorthogonal activity-based proteasome profiling using copper-free click reagents: a comparative study” (Bioorg Med Chem, 2012).
Activity calls are given as the source filed them. The rule behind the calls is not given here.

Key:
[1] = test system: Proteasome; assay: Binding affinity to proteasome in azido-BODIPY-epoxomicin treated HEK293T cell lysates at 50 uM at 0 degC by SDS-PAGE-based fluorescence analysis; assay type: subcellular; conditions: Homo sapiens, HEK-293T
[2] = test system: Proteasome; assay: Binding affinity to proteasome in azido-BODIPY-epoxomicin treated HEK293T cell lysate at 50 uM at 37 degC up to 4 hrs by SDS-PAGE-based fluorescence analysis; assay type: subcellular; conditions: Homo sapiens, HEK-293T
[3] = test system: HeLa; assay: Binding affinity to proteasome in human HeLa cells assessed as fluorescence at 100 uM pretreated with azido-BODIPY-epoxomicin for 2 hrs followed by 4 hrs of incubation with compound measured post washing by SDS-PAGE-based Western blot analysis
[4] = test system: Proteasome; assay: Binding affinity to proteasome in azido-BODIPY-epoxomicin treated HEK293T cell lysates at 1 to 100 uM after 1 hr by Western blot analysis with streptavidin-HRP; assay type: subcellular; conditions: Homo sapiens, HEK-293T
[5] = test system: Proteasome; assay: Binding affinity to proteasome in azido-BODIPY-epoxomicin treated HEK293T cell lysates at 0.5 uM at 0 degC by SDS-PAGE-based fluorescence analysis; assay type: subcellular; conditions: Homo sapiens, HEK-293T
[6] = test system: Proteasome; assay: Binding affinity to proteasome in azido-BODIPY-epoxomicin treated HEK293T cell lysates at 0.5 uM at 37 degC after 30 mins by SDS-PAGE-based fluorescence analysis; assay type: subcellular; conditions: Homo sapiens, HEK-293T
[7] = test system: HeLa; assay: Binding affinity to proteasome in human HeLa cells assessed as fluorescence at 0.5 uM pretreated with azido-BODIPY-epoxomicin for 2 hrs followed by 4 hrs of incubation with compound measured post washing by SDS-PAGE-based Western blot analysis
[8] = test system: Proteasome; assay: Binding affinity to proteasome in azido-BODIPY-epoxomicin treated HEK293T cell lysates at 5 uM after 1 hr by SDS-PAGE-based fluorescence analysis; assay type: subcellular; conditions: Homo sapiens, HEK-293T
[9] = test system: Proteasome; assay: Binding affinity to proteasome in azido-BODIPY-epoxomicin treated HEK293T cell lysates at 5 uM at 37 degC up to 4 hrs by SDS-PAGE-based fluorescence analysis; assay type: subcellular; conditions: Homo sapiens, HEK-293T
[10] = test system: HeLa; assay: Binding affinity to proteasome in human HeLa cells assessed as fluorescence at 5 uM pretreated with azido-BODIPY-epoxomicin for 2 hrs followed by 4 hrs of incubation with compound measured post washing by SDS-PAGE-based Western blot analysis
[11] = test system: Proteasome; assay: Binding affinity to proteasome in azido-BODIPY-epoxomicin treated HEK293T cell lysates at 5 uM at 0 degC by SDS-PAGE-based fluorescence analysis; assay type: subcellular; conditions: Homo sapiens, HEK-293T
[12] = test system: Proteasome; assay: Binding affinity to proteasome in azido-BODIPY-epoxomicin treated HEK293T cell lysates at 50 to 100 uM after 1 hr by SDS-PAGE-based fluorescence analysis; assay type: subcellular; conditions: Homo sapiens, HEK-293T
[13] = test system: Proteasome; assay: Binding affinity to proteasome in azido-BODIPY-epoxomicin treated HEK293T cell lysates at 5 uM at 37 degC after 2 hrs by SDS-PAGE-based fluorescence analysis; assay type: subcellular; conditions: Homo sapiens, HEK-293T

Activity [4]	Activity [10]	Activity [11]	Activity [12]	SMILES	other results
				COC(=O)c1ccc(C(=O)NCCOCCOCCNC(=O)CCCC[C@@H]2SC[C@@H]3NC(=O)N[C@@H]32)cc1P(c1ccccc1)c1ccccc1	Activity [1]: Active; Activity [2]: Active; Activity [3]: Active
Active				O=C(CCCC[C@@H]1SC[C@@H]2NC(=O)N[C@@H]21)NCCOCCOCCOCCNC(=O)OC1Cc2ccccc2C#Cc2ccccc21 (stereo partly drawn)	Activity [5]: Active; Activity [6]: Active; Activity [7]: Active; Activity [8]: Active
Active	Active	Active	Active	O=C(CCCC[C@@H]1SC[C@@H]2NC(=O)N[C@@H]21)NCCOCCOCCNC(=O)C1(F)C#CCCCCC1 (stereo partly drawn)	Activity [9]: Active
Active	Active	Active	Active	O=C(CCCC[C@@H]1SC[C@@H]2NC(=O)N[C@@H]21)NCCOCCOCCOCCNC(=O)OC[C@@H]1[C@@H]2CCC#CCC[C@@H]21	Activity [13]: Active
